Measured values: PubChem BioAssay AID248 (DTP/NCI, 2004)
“And” between values parts separate entries of the source, which are not always exact repeats. Equal entries are not always repeated. Inconclusive results and toxic doses are left out. No stated cut-off is given here; in the data, active means T/C of 150% or more; inactive means T/C below 125%.

Test system: L1210 leukemia ip in BDF1 mice, survival T/C
Assay: NCI In Vivo Anticancer Drug Screen. Data for tumor model L1210 Leukemia (intraperitoneal) in B6D2F1 (BDF1) mice
Conditions: endpoint: mean survival time, higher = longer survival
Method in brief: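 Survival endpoint. Drug-treated group vs vehicle group, expressed as T divided by C. Tumor passaged by transplantation.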

[1] = dose: 100.0 mg/kg/injection, schedule: Q04DX003 (ip), vehicle: saline
[2] = dose: 200.0 mg/kg/injection, schedule: Q04DX003 (ip), vehicle: saline
[3] = dose: 400.0 mg/kg/injection, schedule: Q04DX003 (ip), vehicle: saline
[4] = dose: 100.0 mg/kg/injection, schedule: Q04DX003 (ip), vehicle: Klucel (hydroxypropylcellulose) (HPC)
[5] = dose: 200.0 mg/kg/injection, schedule: Q04DX003 (ip), vehicle: Klucel (hydroxypropylcellulose) (HPC)
[6] = dose: 400.0 mg/kg/injection, schedule: Q04DX003 (ip), vehicle: Klucel (hydroxypropylcellulose) (HPC)
[7] = dose: 100.0 mg/kg/injection, schedule: Q01DX009 (ip), vehicle: saline with Tween-80
[8] = dose: 200.0 mg/kg/injection, schedule: Q01DX009 (ip), vehicle: saline with Tween-80
[9] = dose: 400.0 mg/kg/injection, schedule: Q01DX009 (ip), vehicle: saline with Tween-80
[10] = dose: 100.0 mg/kg/injection, schedule: Q01DX001 (ip), vehicle: saline
[11] = dose: 200.0 mg/kg/injection, schedule: Q01DX001 (ip), vehicle: saline
[12] = dose: 400.0 mg/kg/injection, schedule: Q01DX001 (ip), vehicle: saline
[13] = dose: 100.0 mg/kg/injection, schedule: Q04DX002 (ip), vehicle: saline
[14] = dose: 200.0 mg/kg/injection, schedule: Q04DX002 (ip), vehicle: saline
[15] = dose: 100.0 mg/kg/injection, schedule: Q01DX001 (ip), vehicle: carboxymethylcellulose (CMC)
[16] = dose: 200.0 mg/kg/injection, schedule: Q01DX001 (ip), vehicle: carboxymethylcellulose (CMC)
[17] = dose: 400.0 mg/kg/injection, schedule: Q01DX001 (ip), vehicle: carboxymethylcellulose (CMC)
[18] = dose: 100.0 mg/kg/injection, schedule: Q01DX009 (ip), vehicle: Klucel (hydroxypropylcellulose) (HPC)
[19] = dose: 200.0 mg/kg/injection, schedule: Q01DX009 (ip), vehicle: Klucel (hydroxypropylcellulose) (HPC)
[20] = dose: 400.0 mg/kg/injection, schedule: Q01DX009 (ip), vehicle: Klucel (hydroxypropylcellulose) (HPC)

Measured: T/C

CCOC1CC2c3ccccc3C1c1cccc[n+]12 (centres undefined)
inactive: dose: 12.5 mg/kg/injection, schedule: Q01DX009 (ip), vehicle: saline 100 % of control | dose: 12.5 mg/kg/injection, schedule: Q04DX003 (ip), vehicle: saline 100 % of control and 94 % of control | dose: 25.0 mg/kg/injection, schedule: Q01DX009 (ip), vehicle: saline 98 % of control | dose: 25.0 mg/kg/injection, schedule: Q04DX003 (ip), vehicle: saline 89 % of control and 101 % of control | dose: 50.0 mg/kg/injection, schedule: Q01DX009 (ip), vehicle: saline 94 % of control and 96 % of control | dose: 50.0 mg/kg/injection, schedule: Q04DX003 (ip), vehicle: saline 97 % of control and 101 % of control | dose: 75.0 mg/kg/injection, schedule: Q01DX009 (ip), vehicle: saline 88 % of control | [1] 98 % of control | [2] 107 % of control | [3] 86 % of control

CCCCNC(=O)c1ccccc1N
inactive: dose: 50.0 mg/kg/injection, schedule: Q04DX003 (ip), vehicle: other 103 % of control | dose: 100.0 mg/kg/injection, schedule: Q04DX003 (ip), vehicle: other 95 % of control and 101 % of control | dose: 200.0 mg/kg/injection, schedule: Q04DX003 (ip), vehicle: other 92 % of control | dose: 400.0 mg/kg/injection, schedule: Q04DX003 (ip), vehicle: other 90 % of control

O=C1C=C(OCc2ccccc2)C(=O)C(OCc2ccccc2)=C1
inactive: [4] 93 % of control | [5] 96 % of control | [6] 95 % of control

COC(=O)c1c(O)cc(OC)cc1OC
inactive: dose: 100.0 mg/kg/injection, schedule: Q01DX009 (ip), vehicle: other 108 % of control | [1] 95 % of control | dose: 200.0 mg/kg/injection, schedule: Q01DX009 (ip), vehicle: other 108 % of control | [2] 97 % of control | dose: 400.0 mg/kg/injection, schedule: Q01DX009 (ip), vehicle: other 108 % of control | [3] 111 % of control

CCc1cccc(CC)c1N(C(C)=O)C(C)=O
inactive: [7] 98 % of control | [8] 104 % of control | [9] 102 % of control

CC(=O)NCC(N)=S
inactive: [10] 102 % of control | [11] 102 % of control | [12] 98 % of control

COC(CN)C(Cl)(Cl)Cl (centres undefined)
inactive: [10] 98 % of control | [13] 96 % of control and 89 % of control | [1] 98 % of control | [11] 107 % of control | [14] 94 % of control and 100 % of control | [2] 107 % of control | [12] 96 % of control | dose: 400.0 mg/kg/injection, schedule: Q04DX002 (ip), vehicle: saline 96 % of control and 100 % of control | [3] 106 % of control

CCc1ccc(CC(=S)N2CCOCC2)cc1
inactive: [15] 101 % of control | [16] 95 % of control | [17] 109 % of control

O=C(CI)OCCCl
inactive: dose: 12.5 mg/kg/injection, schedule: Q01DX009 (ip), vehicle: other 94 % of control | dose: 25.0 mg/kg/injection, schedule: Q01DX009 (ip), vehicle: other 97 % of control | dose: 50.0 mg/kg/injection, schedule: Q01DX009 (ip), vehicle: other 97 % of control

COc1cc(C(=O)Nc2ccccc2F)cc(OC)c1OC
inactive: [18] 92 % of control | [19] 94 % of control | [20] 97 % of control

O=C(O)C(O)(Cc1ccccc1)C(=O)C(O)C(O)CO (centres undefined)
inactive: dose: 50.0 mg/kg/injection, schedule: Q04DX002 (ip), vehicle: saline 87 % of control | [13] 106 % of control | [14] 91 % of control

Cc1cc(NC(=O)c2ccccc2)c(C)cc1N
inactive: [15] 92 % of control | [16] 99 % of control | [17] 101 % of control

O=C1CC2(CCN(Cc3ccccc3)CC2)C(=O)N1N1CCCC1
inactive: dose: 100.0 mg/kg/injection, schedule: Q01DX001 (ip), vehicle: Klucel (hydroxypropylcellulose) (HPC) 91 % of control | dose: 200.0 mg/kg/injection, schedule: Q01DX001 (ip), vehicle: Klucel (hydroxypropylcellulose) (HPC) 88 % of control | dose: 400.0 mg/kg/injection, schedule: Q01DX001 (ip), vehicle: Klucel (hydroxypropylcellulose) (HPC) 89 % of control

C=CCC(Cc1ccccc1)NCC1CC1 (centres undefined)
inactive: dose: 6.25 mg/kg/injection, schedule: Q04DX002 (ip), vehicle: saline with Tween-80 114 % of control | dose: 12.5 mg/kg/injection, schedule: Q04DX002 (ip), vehicle: saline with Tween-80 104 % of control | dose: 25.0 mg/kg/injection, schedule: Q04DX002 (ip), vehicle: saline with Tween-80 111 % of control

CCOC(OC(C)=O)OC(C)=O
inactive: [1] 87 % of control | [2] 101 % of control | [3] 97 % of control

COc1ccc(N)cc1
inactive: dose: 100.0 mg/kg/injection, schedule: Q01DX009 (ip), vehicle: alcohol 121 % of control | dose: 200.0 mg/kg/injection, schedule: Q01DX009 (ip), vehicle: alcohol 88 % of control

Clc1ccccc1C(c1ccc(-c2ccccc2)cc1)(c1ccc(-c2ccccc2)cc1)n1ccnc1
inactive: [4] 95 % of control | [5] 104 % of control | [6] 90 % of control

COc1ccc(/C(C#N)=C2C=C(Cl)/C(=N/O)C=C/2Cl)cc1
inactive: [10] 91 % of control | [7] 93 % of control | [1] 91 % of control | [11] 95 % of control | [8] 98 % of control | [2] 87 % of control | [12] 96 % of control | [3] 86 % of control

[O]=[V]([OH])([OH])[OH]
inactive: dose: 2.0 mg/kg/injection, schedule: Q01DX015 (ip), vehicle: saline 101 % of control | dose: 4.0 mg/kg/injection, schedule: Q01DX015 (ip), vehicle: saline 103 % of control | dose: 8.0 mg/kg/injection, schedule: Q01DX015 (ip), vehicle: saline 103 % of control | dose: 12.5 mg/kg/injection, schedule: Q01DX001 (ip), vehicle: saline 113 % of control | dose: 16.0 mg/kg/injection, schedule: Q01DX015 (ip), vehicle: saline 108 % of control | dose: 25.0 mg/kg/injection, schedule: Q01DX001 (ip), vehicle: saline 96 % of control | dose: 32.0 mg/kg/injection, schedule: Q01DX015 (ip), vehicle: saline 103 % of control | dose: 50.0 mg/kg/injection, schedule: Q01DX001 (ip), vehicle: saline 98 % of control | dose: 64.0 mg/kg/injection, schedule: Q01DX015 (ip), vehicle: saline 88 % of control

CCCCCCCCCCCCCCCCC(=O)O.[Pb]
inactive: dose: 75.0 mg/kg/injection, schedule: Q01DX001 (ip), vehicle: other 94 % of control | dose: 150.0 mg/kg/injection, schedule: Q01DX001 (ip), vehicle: other 92 % of control | dose: 300.0 mg/kg/injection, schedule: Q01DX001 (ip), vehicle: other 92 % of control

CCOP(=O)(CCBr)Oc1ccc([N+](=O)[O-])cc1 (centres undefined)
inactive: dose: 0.5 mg/kg/injection, schedule: Q01DX001 (ip), vehicle: saline 97 % of control | dose: 1.0 mg/kg/injection, schedule: Q01DX001 (ip), vehicle: saline 97 % of control | dose: 2.0 mg/kg/injection, schedule: Q01DX001 (ip), vehicle: saline 103 % of control | dose: 4.0 mg/kg/injection, schedule: Q01DX001 (ip), vehicle: saline 107 % of control

C/C(=N\n1c(-c2ccccc2)nc2ccccc2c1=O)c1ccc(C)cc1
inactive: [18] 98 % of control | [19] 96 % of control | [20] 100 % of control

COc1ccc(OC)c(CCCC(=O)O)c1
inactive: dose: 50.0 mg/kg/injection, schedule: Q01DX001 (ip), vehicle: carboxymethylcellulose (CMC) 108 % of control | [15] 104 % of control | [16] 104 % of control | [17] 102 % of control

C=CCc1cc(C)cc([N+](=O)[O-])c1OBr
inactive: dose: 100.0 mg/kg/injection, schedule: Q01DX001 (ip), vehicle: saline with Tween-80 89 % of control | [7] 97 % of control | dose: 200.0 mg/kg/injection, schedule: Q01DX001 (ip), vehicle: saline with Tween-80 88 % of control | [8] 98 % of control | dose: 400.0 mg/kg/injection, schedule: Q01DX001 (ip), vehicle: saline with Tween-80 93 % of control | [9] 93 % of control
